In EP0897720A1, “Droloxifene for prevention of breast cancer” (Pfizer Products Inc., priority 1997, dated 1999):

How the values were obtained:
[1] = tested on: puberal, female sprague-Dawley rats; assay: Anti-uterotrophic effect (modified Dorfman Test); type: in vivo; settings: 3 mg./kg./day by stomach tube, six times weekly over 21 days, 0.25% aqueous agar suspension
Protocol: The anti-uterotrophic effect was determined according to a modified "Dorfman Test" [R. I. Dorfman, Methods in Hormone Research II, p. […]

[2] = tested on: 7,12-dimethylbenz(a)anthraceneinduced mammary tumor; assay: Inhibitory effect on the mammary tumor (DMBA-induced tumor model); type: in vivo, female Sprague-Dawley rat (Hanover breed); settings: 3 mg./kg./day by stomach tube, six times weekly over 28 days; control animals taken as 100%
Protocol: Twice weekly and on the 28th day of testing the number of animals was determined and the tumor surface (mm^2/animal) of the therapy animals and control animals was measured. At the end of testing, the percentage increase of the average tumor surface of the treated animals was determined in comparison to the control animals, the surface of the latter being taken as 100%.

[3] = tested on: epithelial cells of the uterus; settings: stated as a known side-effect of earlier anti-estrogens; cited from earlier work

SMILES	Uterine Weight compared to Controlled Animals [1]	Relative Increase of the Average Tumor Surface [2]	abnormal growth of uterine epithelial cells [3]
CC/C(=C(/c1ccc(OCCN(C)C)cc1)c1cccc(O)c1)c1ccccc1 [Compound 1, 1-[4'-(2-dimethylaminoethoxy)phenyl]-1-(3'-hydroxyphenyl)-2-phenylbut-1-ene]	-42%	23%	–
CC/C(=C(\c1ccccc1)c1ccc(OCCN(C)C)cc1)c1ccccc1 [Tamoxifen, reference compound]	-40%	–	causes abnormal growth of uterine epithelial cells
CC/C(=C(/c1ccc(OCCN(CC)CC)cc1)c1cccc(O)c1)c1ccccc1 [Compound 2]	-39%	–	–
CC/C(=C(/c1ccc(OCCNC)cc1)c1cccc(O)c1)c1ccccc1 [Compound 3]	-53%	–	–
